Values belong to the compound of their own block, whether it stands above or below them.
Columns and labels:
[1] = test system: HEL cells (containing the JAK2 V617F mutant); experiment: STAT5 phosphorylation in HEL cells, Western blot; assay type: cell-based, Human; conditions: for concentration up to which no inhibition of STAT5 phosphorylation was observed: 11: 1-hour incubation
JAK2 JH2 WT = JAK2 JH2 WT (Homo sapiens, UniProt O60674); assay type: binding
[2] = Parallel Artificial Membrane Permeation Assay; conditions: for PAMPA permeability, in words: PAMPA values close or equal to 0; for Papp at 18 h: pH 7.4
[3] = test system: TF-1 cells starved of cytokine (WT JAK2); experiment: Stimulation of STAT5 phosphorylation in TF-1 cells starved of cytokine; assay type: cell-based, Human; conditions: 0.1, 0.5, and 2 μM
[4] = test system: TF-1 cells (containing wild-type JAK2); experiment: STAT5 phosphorylation in TF-1 cells, Western blot; assay type: cell-based, Human; conditions: 1 hour

Chain of JAK2 JH2 WT (O60674 536-812): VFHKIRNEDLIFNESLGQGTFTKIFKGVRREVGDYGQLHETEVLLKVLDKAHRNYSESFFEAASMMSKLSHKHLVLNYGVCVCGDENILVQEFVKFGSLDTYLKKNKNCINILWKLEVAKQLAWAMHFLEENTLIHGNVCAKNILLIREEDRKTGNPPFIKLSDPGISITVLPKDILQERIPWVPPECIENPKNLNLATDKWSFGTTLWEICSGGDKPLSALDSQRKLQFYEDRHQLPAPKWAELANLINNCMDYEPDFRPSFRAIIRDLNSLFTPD

IC50 ([1]; Homo sapiens, HEL, read-out: IC50 (inhibition of STAT-5 phosphorylation)): 1000 to 5000 nM
SMILES: Nc1nc(Nc2ccc(S(N)(=O)=O)cc2)nn1C(=O)c1c(F)cccc1F [Compound 1, JNJ7706621, reference compound]

loss in binding affinity compared to 2 (JAK2 JH2 WT; JAK2 JH2): 3 fold
SMILES: Nc1nc(Nc2ccc(S(N)(=O)=O)cc2)nn1C(=O)Nc1ccc(-c2cccc(C(=O)O)n2)cc1 [Compound 3, 6-(4-(5-amino-3-((4-sulfamoylphenyl)amino)-1H-1,2,4-triazole-1-carboxamido)phenyl)picolinic acid]

SMILES: Nc1nc(Nc2ccc(S(N)(=O)=O)cc2)nn1C(=O)Nc1ccc(-c2cccc(C(=O)O)c2)cc1 [Compound 7, 4’-(5-amino-3-((4-sulfamoylphenyl)amino)-1H-1,2,4-triazole-1-carboxamido)-[1,1’-biphenyl]-3-carboxylic acid]
PAMPA permeability, in words [2]: essentially impermeable

SMILES: COC(=O)c1cccc(-c2ccc(NC(=O)n3nc(Nc4ccc(S(N)(=O)=O)cc4)nc3N)cc2)c1 [Compound 8, Methyl 4’-(5-amino-3-((4-sulfamoylphenyl)amino)-1H-1,2,4-triazole-1-carboxamido)-[1,1’-biphenyl]-3-carboxylate]
loss in binding affinity compared to 7 (JAK2 JH2 WT; JAK2 JH2): about 3 orders of magnitude
PAMPA permeability, in words [2]: essentially impermeable

SMILES: Nc1nc(Nc2ccc(S(N)(=O)=O)cc2)nn1C(=O)Nc1ccc(-c2ccccc2)cc1 [Compound 9, N-([1,1’-biphenyl]-4-yl)-5-amino-3-((4-sulfamoylphenyl)amino)-1H-1,2,4-triazole-1-carboxamide]
loss in binding affinity compared to 7 (JAK2 JH2 WT; JAK2 JH2): about 3 orders of magnitude
PAMPA permeability, in words [2]: essentially impermeable

SMILES: Nc1nc(Nc2ccc(S(N)(=O)=O)cc2)nn1C(=O)Nc1ccc(-c2ccc(OCc3ccccc3)c(C(=O)O)c2)cc1 [Compound 11, 4’-(5-amino-3-((4-sulfamoylphenyl)amino)-1H-1,2,4-triazole-1-carboxamido)-4-(benzyloxy)-[1,1’-biphenyl]-3-carboxylic acid]
concentration up to which no inhibition of STAT5 phosphorylation was observed ([1]; HEL cells, Western blot): > 40 µM

SMILES: Nc1nc(Nc2ccc(S(N)(=O)=O)cc2)nn1C(=O)Nc1ccc(-c2cc(OCc3ccccc3)cc(C(=O)O)c2)cc1 [Compound 12, 4’-(5-amino-3-((4-sulfamoylphenyl)amino)-1H-1,2,4-triazole-1-carboxamido)-5-(benzyloxy)-[1,1’-biphenyl]-3-carboxylic acid]
weaker binder than 11 (JAK2 JH2 WT; WT JAK2 JH2): 2 fold
increase in permeability compared to its isomer 11 ([2]; PAMPA): 3 fold
concentration up to which no inhibition of STAT5 phosphorylation was observed ([1]; HEL cells, Western blot): > 25 µM

SMILES: CNC(=O)c1ccc(Nc2nc(N)n(C(=O)Nc3ccc(-c4ccc(OCc5ccccc5)c(C(=O)O)c4)cc3)n2)cc1 [Compound 13, 4’-(5-amino-3-((4-(methylcarbamoyl)phenyl)amino)-1H-1,2,4-triazole-1-carboxamido)-4-(benzyloxy)-[1,1’-biphenyl]-3-carboxylic acid]
stronger binding for WT JH2 than 2 (JAK2 JH2 WT): 10 fold
reduced permeability (compared to 11) ([2]; PAMPA): ~2 fold
stimulation of STAT5 phosphorylation [3]: no stimulation of STAT5 phosphorylation was observed
inhibition of STAT-5 phosphorylation ([1]; HEL cells, 20 μM, Western blot): complete inhibition
concentration range in which inhibition of STAT5 phosphorylation was observed ([1]; HEL cells, tested at 2-30 μM, 1 hour): 10 to 20 µM
inhibition of STAT-5 phosphorylation ([4]; 20 μM, Western blot): complete inhibition
concentration range in which inhibition of STAT5 phosphorylation was observed ([4]; tested at 2-30 μM): 10 to 20 µM

improved binding affinity compared to 12 (JAK2 JH2 WT; WT JAK2 JH2): 2 fold
SMILES: CNC(=O)c1ccc(Nc2nc(N)n(C(=O)Nc3ccc(-c4cc(OCc5ccccc5)cc(C(=O)O)c4)cc3)n2)cc1 [Compound 14, 4’-(5-amino-3-((4-(methylcarbamoyl)phenyl)amino)-1H-1,2,4-triazole-1-carboxamido)-5-(benzyloxy)-[1,1’-biphenyl]-3-carboxylic acid]
concentration up to which no inhibition of STAT5 phosphorylation was observed ([1]; HEL cells, Western blot): > 30 µM

SMILES: O=C(N[C@H](CO)[C@H](O)c1ccc([N+](=O)[O-])cc1)C(Cl)Cl [chloramphenicol, reference compound]
Papp at 18 h ([2]; PAMPA): 4.36 to 4.99 ×10⁻⁶ cm/s

SMILES: Cn1c(=O)c2[nH]cnc2n(C)c1=O.O [theophylline, reference compound]
Papp at 18 h ([2]; PAMPA): 0.27 to 0.33 ×10⁻⁶ cm/s
